Measured values published in US9119805B2, “Therapy and prevention of problem drinking” (THE UNIVERSITY OF SYDNEY, priority 2009, dated 2015).
Entries after “also recorded” stand apart in the source; their conditions may differ.

Key:
[1] = test system: alcohol-dependent adults and non-dependent problem drinkers; experiment: Human Study 2: intranasal oxytocin, alcohol self-administration; assay type: in vivo; conditions: versus placebo
Protocol: In a second clinical study in humans, the effect(s) of intranasal oxytocin therapy on alcohol self-administration are determined in a population of alcohol-dependent adults and in a population of non-dependent problem drinkers.
At least forty male and female adults are recruited from the community to the Brain and Mind Research Institute (BMRI) to participate in a laboratory based investigation looking at the impact of oxytocin on alcohol craving. Participants have a current diagnosis of alcohol dependence according to the Diagnostic and Statistical Manual of Mental Disorders, Fourth Edition (DSM-IV) as determined by the Structured Clinical Interview for the DSM-IV (SCID-IV) or are non-dependent subjects scoring higher than 8 on AUDIT. Male and female participants are chronic hazardous drinkers consuming more than 20 (females) or 25 (males) standard drinks per week (i.e., females: more than 200 g alcohol per week; males more than 250 g alcohol per week), respectively, and have not been abstinent more than 3 days per week in the 30 days preceding commencement of the trial as determined by AUDIT.
All subjects are tested for baseline SCID-IV, AUDIT, PDQ, 90-day TLFB, DASS-21, PANAS, AUQ, FTND, urine toxicology, plasma oxytocin and cortisol, liver function testing, heart rate (HR), blood pressure (BP), and ECG, and females are pregnancy-tested and their menstrual cycles determined, as described herein above for Study 2. Neuropsychological evaluations are also performed e.g., according to CANTAB. Additionally, subjects are subjected to attention bias assessment task testing, wherein attention biases to alcohol-related cues are determined using e.g., stroop and dot-probe methodology. Subjects also participate in a reward learning computer task, to assess motivation for their alcohol consumption. Based on their test results, subjects are selected for recruitment in the study.
Recruited subjects are administered placebo or oxytocin intranasally (80 IU per day: 40 IU at 9:00 am and 40 IU at 9:00 pm) over a period of 7 days, following completion of baseline measurements. Subjects are instructed on self-administration procedures. Drug administration commences on the evening of the day of the clinical and medical interview and ceases on a morning one-week later, after 14 doses have been administered. Subjects are randomized to oxytocin-receiving or placebo-receiving groups, and the groups are stratified according to gender, age, and drinking behavior. Subjects are contacted by telephone daily to confirm medication compliance and determine adverse events.
Subjects returning to the BMRI on the afternoon of the final day of testing are evaluated. Bloods for plasma oxytocin and cortisol levels are collected before commencement. A urine toxicology test and alcohol breathalyzer test are also performed, to determine whether subjects have been alcohol-free and drug-free at the time of testing. Subjects are tested according to DASS-21, PANAS, 7-day TLFB, and AUQ, and neuropsychological evaluations e.g., according to CANTAB are performed. Changes in mood, drinking behavior and neuropsychology are evaluated for both groups by comparison with baseline evaluations. Changes in smoking behavior are evaluated by FTND testing and comparison with baseline evaluations. HR and BP records over the period and at cessation are also determined and compared to baseline levels before commencement of therapy. […]

P rats [2] = experiment: Lickometer alcohol preference in alcohol-naïve P rats pre-treated with 10 daily oxytocin injections (Example 2); assay type: in vivo, rat
Protocol: P rats (8 female and 6 male P rats) of adult age (i.e., 150 days) were used in this study. Animals were maintained as described in example 1, however they received no alcohol prior to testing.
One-half of the rats (n=4 female and n=3 male) were given 10 injections of 1 mg/kg oxytocin (a single I/P injection per day for a total of 10 days). The other half of the rats received equivalent injections of placebo/vehicle lacking oxytocin. Two weeks later, the alcohol preferences of both sets of alcohol-naïve animals were tested. The same alcohol and alcohol-free solutions were employed as in example 1, and testing conditions were in the same lickometer apparatus. Testing in the lickometer (1×70 min session per day) continued for a total of 10 days during which time intake of sucrose and Vodka Cruiser were measured.

P rats [3] = experiment: Lickometer choice of Vodka Cruiser versus 3% sucrose after acute oxytocin in alcohol-exposed P rats (Example 1); assay type: in vivo, rat
Excerpt: P rats (8 female and 8 male P rats) were provided by Professor Andrew Lawrence at the Howard Florey Institute, Melbourne, Australia. The animals were of adolescent age (i.e., 28 days-old) on arrival at the animal house. Animals were housed in same-sex cages at a density of 3-4 rats per cage. Over the following 2 months, animals received intermittent exposure to various alcoholic beverages in their home cages e.g., white wine, red wine, beer, Vodka Cruiser, Bacardi Breezer, but were alcohol-free for the month preceding testing.
Testing occurred in a lickometer apparatus. Rats were placed in a small metal cage where they have a choice of two tubes for supply of liquids, wherein the tube were designed such that every third lick at one tube delivered a small drop (0.07 ml) of 3% (w/v) sucrose solution, and every third lick at the other tube delivered a small amount of alcohol-containing beverage, in particular Vodka Cruiser (Raspberry Flavor), containing 5.0% (w/v) ethanol. Rats were exposed daily to 70 min sessions in the lickometer until their intake of sucrose and/or alcohol and preferences for these beverages had stabilized.
One-half of the rats being tested were injected intra-peritoneally (I/P) with a single dosage of 0.3 mg/kg oxytocin, administered 10 min before their daily drinking session. The following day, these animals received a normal baseline test session with no further oxytocin dosing. The following day, one-half of the animals were administered I/P with 1 mg/kg oxytocin 10 min before the test session. Normal drinking sessions then continued for a further 4 days. During the same period, the other one-half of the rats were administered a placebo (vehicle) lacking oxytocin. Animals receiving the placebo were treated with oxytocin in exactly the same sequence as the treatment group, commencing one week after the start of testing. A final test to determine alcohol intake and alcohol preference was conducted after 55 days, to determine whether or not oxytocin induced lasting changes in drinking behavior.

[4] = acute oxytocin 0.3 and 1 mg/kg I/P, 10 min before 70 min session

In the case of `CC[C@H](C)[C@@H]1NC(=O)[C@H](Cc2ccc(O)cc2)NC(=O)[C@@H](N)CSSC[C@@H](C(=O)N2CCC[C@H]2C(=O)N[C@@H](CC(C)C)C(=O)NCC(N)=O)NC(=O)[C@H](CC(N)=O)NC(=O)[C@H](CCC(N)=O)NC1=O` [oxytocin], the alcohol consumed ([1]; ad libitum drinking sessions) was “consume less alcohol”, the “bias to alcohol-related cues” value [1] was “lower bias” and the “positive response to the alcohol primer” value [1] was “lower levels of positive response”. The “reward motivation for alcohol consumption” value [1] was “reduced reward motivation”, the “subjective craving for alcohol” value [1] was “lower” and the “alcohol intake and preference for alcohol” value (P rats [2]; alcohol-naïve P rats, both sexes, repeated doses) was “reduced alcohol intake and preference for alcohol; also recorded: reduced significantly”. For the same compound, the “preference for Vodka Cruiser versus 3% sucrose solution” value (P rats [2]; male alcohol-naïve P rats, 10 x 1 mg/kg/day, final 4 days of testing) was “significantly reduced preference for Cruiser over sucrose”, the intake of sucrose (P rats [2]; male oxytocin-treated rats relative to both female groups) was “higher” and the “intake of Cruiser (alcohol)” value (P rats [2]; male oxytocin-treated rats versus the other groups) was “less intake of alcohol; also recorded: lower”. For the same compound, the “reduced acquisition of alcohol preference, comparison between the sexes” value (P rats [2]; males compared to females) was “greater in males compared to females”, the “duration of the reduction in alcohol preference and alcohol intake” value (P rats [3]; P rats, after 1 mg/kg oxytocin) was 7-8 weeks and the “intake of Vodka Cruiser (alcohol consumption)” value (P rats [3]; [4]) was “significant reduction; also recorded: reduced their alcohol consumption significantly”. For the same compound, the “intake of sucrose solution” value (P rats [3]; [4]) was “significant reduction”, the “time intake of the alcoholic beverage remained suppressed” value (P rats [3]; following oxytocin) was “at least 55 days” and the “reduction of baseline alcohol intake” value (P rats [3]; male and female P rats, 2 days following treatment, FIG. 1) was “about 50%”. For the same compound, the “reduction in alcohol consumption, comparison between the sexes” value (P rats [3]; male versus female P rats) was “comparable between the sexes” and the “preference for alcohol (Vodka Cruiser versus 3% sucrose)” value (P rats [3]; treated male and female P rats) was “shift towards a preference for alcohol-free solution; also recorded: reduced preference for alcohol”.
